Experimental data published in patent US20230203058A1, “MACROCYCLIC DIAMINE DERIVATIVES AS ENT INHIBITORS FOR THE TREATMENT OF CANCERS, AND COMBINATION THEREOF WITH ADENOSINE RECEPTOR ANTAGONISTS” (ITEOS BELGIUM SA, priority 2020, published 2023).
Where two headings read alike, the source gives them in different places.

Tests used:
human ENT1 = molecular target: T1, human ENT1 (Homo sapiens, UniProt Q99808); assay: ENT1 binding assay (competition with Sahenta-DY647 on JAR cells); design: JAR cells expressing ENT1 were bought from ATCC® (HTB-144TM); host or cells: JAR cells (human choriocarcinoma line; whole cells); conditions: competition with Sahenta-DY647 100 nM, 4° C.
T1 sequence (Q99808 1-456): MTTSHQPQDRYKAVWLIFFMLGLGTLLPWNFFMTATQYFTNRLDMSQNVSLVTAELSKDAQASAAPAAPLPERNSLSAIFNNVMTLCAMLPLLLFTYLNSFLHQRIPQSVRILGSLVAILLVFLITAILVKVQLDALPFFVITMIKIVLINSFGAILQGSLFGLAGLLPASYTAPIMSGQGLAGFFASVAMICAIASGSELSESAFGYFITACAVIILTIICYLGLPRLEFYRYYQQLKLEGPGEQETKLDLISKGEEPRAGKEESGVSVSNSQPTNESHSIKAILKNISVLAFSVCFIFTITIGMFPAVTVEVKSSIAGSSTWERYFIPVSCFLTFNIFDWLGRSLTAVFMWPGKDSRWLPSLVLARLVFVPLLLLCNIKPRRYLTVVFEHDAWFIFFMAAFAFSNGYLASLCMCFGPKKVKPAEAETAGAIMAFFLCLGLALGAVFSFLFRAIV
Summary of the method: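 Competition binding on intact JAR cells (50000 per well) in HBSS with 10 mM Hepes and 0.1% BSA. Cells pre-incubated with compound 30 min at 4 °C, then Sahenta-DY647 added at its IC90 (100 nM) for another 30 min at 4 °C; after washing, fluorescence read at Ex 630/Em 670 nm.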

human T cells = assay: T cell stimulation assay (Example III, FIG. 1); assay type: cell-based; conditions: ATP 100 µM
Experimental: FIG. 1A depicts a graph of log concentration (M) versus percent proliferation. Purified human T cells were activated with anti-CD3/CD28 dynabeads in the presence of ATP (100 µM) as a source of adenosine for 96 h and then proliferation was assessed by CFSE dilution.
FIG. 1B depicts a graph of log concentration of ENT1 inhibitor (M) versus percent proliferation. Experiment performed as in FIG. A with the addition of HSA and AAG to the culture medium (final concentration 2 and 0.1%, respectively).
Peripheral blood mononuclear cells (PBMCs) were first isolated via centrifugation of fresh whole blood over Lymphoprep using SepMate-50 tubes (both from […] Technologies) according to the manufacturer’s instructions. Human T cells were then isolated from the PBMCs using the EasySep Human T cell Isolation Kit ([…] Technologies) according to the manufacturer’s instructions and the cells were cryopreserved in FBS with 10% DMSO until required.
Cryopreserved human T cells were thawed on the day of the experiment and resuspended in PBS with 10% FBS at approximately 1 × 10^7 cells/ml. This cell suspension was diluted 1:1 with 2 µM CFSE solution (ThermoFisher Scientific) in PBS and incubated for 5 minutes at room temperature. The labelling reaction was quenched by further addition of PBS with 10% FBS, and then the cells were washed into X-VIVO15 medium (Lonza) for use in the T cell assay.
CFSE-labelled T cells were plated at 2 × 10^4 cells per well in 384 well plates in the presence of ATP (100 µM, Sigma-Aldrich) as a source of adenosine. Activation was driven by the addition of Dynabeads Human T-Activator CD3/CD28 (ThermoFisher Scientific) at a ratio of 0,5 beads per T cell. ENT1 inhibitor molecules including the reference molecule dilazep (Tocris Bioscience) were added, the volume of the wells was adjusted to 50 µl with X-VIVO15 medium and the plates were cultured in a humidified incubator for 96 h at 37° C. with 5% CO2. In some experiments the culture was supplemented with human serum albumin (HSA) and alpha-1-acid glycoprotein (AAG, both Sigma-Aldrich) at final concentrations of 2 and 0,1%, respectively.
Analysis of proliferation via CSFE dilution was performed by flow cytometry using a BD LSR Fortessa with data analysis on FlowJo (BD Biosciences).

[1] = anti-CD3/CD28 dynabeads, 96 h (FIG. 1A), read-out: IC50 of restoration of T cell proliferation
[2] = with HSA 2% and AAG 0,1% (FIG. 1B), read-out: IC50 of restoration of T cell proliferation under high protein binding conditions

| Structure (SMILES) | IC50 (human ENT1) [nM] | IC50 (human T cells; [1]) [nM] | IC50 (human T cells; [2]) [nM] |
| --- | --- | --- | --- |
| COc1cc(C(=O)O[C@H]2CCCOc3cc(cc(OC)c3OC)C(=O)OCCCN3CCCN(CC2)CC3)cc(OC)c1OC [Compound 2, (12S)-74,75-dimethoxy-6-oxo-5,8-dioxa-1(1,4)-diazepana-7(1,3)-benzenacyclotetradecaphane-12-yl 3,4,5-trimethoxybenzoate] | 1 to 20 | 0.3 | 2 |
| COc1cc(C(=O)OC2CCCOc3cc(cc(OC)c3OC)C(=O)N(C)CCCN3CCCN(CC2)CC3)cc(OC)c1OC (stereo not drawn) [Compound 11, 74,75-dimethoxy-5-methyl-6-oxo-8-oxa-5-aza-1(1,4)-diazepana-7(1,3)-benzenacyclotetradecaphane-12-yl 3,4,5-trimethoxybenzoate] | 1 to 20 | 7 | 125 |
